{"source": "patent US6884596B2", "about": "“Screening and therapeutic methods for promoting wakefulness and sleep” (The Regents of the University of California, priority 2000, dated 2005)", "key": {"GPR10 [1]": {"target": "T1, GPR10 (Homo sapiens, UniProt P49683)", "T1 sequence (P49683 1-370)": "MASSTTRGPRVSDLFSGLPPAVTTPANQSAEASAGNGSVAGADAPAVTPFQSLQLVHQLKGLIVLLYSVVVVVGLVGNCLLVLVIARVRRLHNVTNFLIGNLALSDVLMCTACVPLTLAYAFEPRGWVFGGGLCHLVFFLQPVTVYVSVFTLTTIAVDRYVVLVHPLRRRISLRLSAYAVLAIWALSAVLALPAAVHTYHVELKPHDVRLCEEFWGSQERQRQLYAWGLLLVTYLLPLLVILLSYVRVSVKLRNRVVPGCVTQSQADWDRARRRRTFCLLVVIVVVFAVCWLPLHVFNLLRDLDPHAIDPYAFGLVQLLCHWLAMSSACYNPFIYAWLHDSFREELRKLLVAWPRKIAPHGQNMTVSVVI", "conditions": "read-out: apparent affinity for GPR10; cited from earlier work"}, "GPR10 [2]": {"target": "T1, GPR10", "conditions": "cells transfected with GPR10; cited from earlier work"}, "[3]": {"tested_on": "AMPA receptor-mediated thalamic oscillatory activity", "assay": "AMPA receptor-driven oscillatory activity, extracellular recording from RTN in thalamic slices", "design": "species or system Sprague-Dawley rats", "experimental": "(§1) Horizontal thalamic slices (400 μm) were prepared from Sprague-Dawley rats (postnatal rats 13-15) using a vibratome (Leica, VTlOOOS). The slices were transferred to a recording chamber after at least 1 hr recovery, and were superfused with artificial cerebrospinal fluid (aCSF) equilibrated with 95% 02/5% CO2 at 0.5 ml/mm. The aCSF contained (in mM): NaCl 126, KCl2.5, NaH2PO4 1.25, CaCl2 2, MgSO4 0.63, NaHCO3 26, and glucose 10. All experiments were carried out in the presence of 10 μM bicuculline maleate and cytochrome c (100 μg/ml) at 34° C. A glass electrode filled with 2 M NaCl was positioned in the nucleus of reticular thalamus (RTN), and extracellular recording was made in response to stimulation of the internal capsule (1-50 μA) every 20-30 sec. After establishing stable oscillatory activity, PrRP was applied for 15-20 min. Paired Student's t-Test was used for statistical analysis. The data were digitized at 1-5 kHz with the Neuronal Activity Acquisition Program (Eclectek Enterprise).\nThe bar on the left indicates the duration of peptide application. The traces at the bottom show representative responses before and in the presence of PrRP, taken at the time points indicated with arrow heads. […]"}, "[4]": {"tested_on": "NMDA receptor-mediated thalamic oscillatory activity", "assay": "NMDA receptor-driven oscillatory activity in thalamic slices (low Mg2+ aCSF with CNQX)", "design": "species or system Sprague-Dawley rats", "conditions": "10 μM; low Mg2+ (0.1 mM) aCSF with 10 μM CNQX; n=4", "experimental": "as §1\nIt was next investigated whether the suppression of RTN oscillatory activity by PrRP is the consequence of AMPA receptor modulation or some general cellular effect. […] The above experiment was thus repeated in a low Mg^2+ (0.1 mM)-aCSF containing 10 μM of the AMPA receptor antagonist CNQX."}, "[5]": {"tested_on": "GAERS (Genetic Absence Epilepsy Rats from Strasbourg)", "assay": "absence seizure activity (spike and wave discharges, EEG) in GAERS after ICV injection", "type": "in vivo, rat", "experimental": "Electroencephalogram (EEG) recordings and intracerebroventricular (ICV) injection into GAERS were performed essentially as described in Liu et al., Brain Res. 545:1-7 (1991). Briefly, six male GAERS (300-400 g) were implanted stereotaxically (AP=−0.8, ML=1.2, CV=3 mm, with bregma as reference) with a permanent stainless steel cannula under pentobarbital anesthesia (40 mg/kg i.p.). All rats were also implanted bilaterally with 4 stainless-steel electrodes at the frontal and parietal cortex and connected to a microconnector. Both the guide cannulae and EEG electrodes were anchored to the skull using retaining screws and dental acrylic cement.\nAfter one week of recovery, stainless steel injection cannulae were introduced into the guide cannulae so as to extend 2-4 mm beyond their tips. Injection cannulae were connected to a 10 μl microsyringe driven by a pump. Five microliters saline or peptides at various concentrations were microinjected over 1 min through the cannulae while taking EEG recordings continuously throughout the duration of the experiment, in freely moving animals. During EEG recordings the rats were carefully watched and were prevented from falling asleep by gentle sensory stimulation. Seizure frequency was determined as a cumulative duration of spike and wave discharges per consecutive 20 minute periods (seconds of seizure activity per 20 minute recording) after the initial injection. Statistical analysis was performed using the Wilcoxon test.\nPrRP was administered intracerebroventricularly into GAERS rats. EEG was taken throughout the course of the experiment and time spent in seizures (spike and wave discharges (SWD) duration) was tabulated for 20 minute intervals from the initial infusion of either aCSF control or various peptide concentrations. Data from six animals receiving the same treatment were pooled. In comparison to aCSF control, PrRP was able to dose-dependently suppress seizure activity in this animal model (FIGS. 5A-5D). […] This seizure suppressing activity remained significant 60 to 80 minutes after peptide injection.\nThe chart calibration was 200 microV/1 sec."}, "[6]": {"tested_on": "sleeping Sprague-Dawley rats", "assay": "EEG/EMG sleep/wake recording in sleeping rats after i.c.v. infusion", "type": "in vivo, rat", "experimental": "To determine if PrRP modulates sleep/wake or arousal states, varying doses of PrRP were injected i.c.v. into sleeping rats. EEG and EMG were recorded for 150 min in three groups, each consisting of 6 rats, that received either vehicle, 1 nmol PrRP, or 10 nmol PrRP. Analyses were conducted across five consecutive 30-min epochs; vehicle or PrRP were injected at the end of the second epoch. Vehicle-treated rats spent a substantial portion of the entire testing period asleep with characteristic EEG/EMG recordings. EEG and EMG recordings were made from Male Sprague-Dawley rats (300-400 g, Sasco, Oregon, Wis.) according to the method described previously (Berridge et al., J. Neurosci., 16:6999-7009 (1996)).\nRats were housed in pairs for at least 7-days prior to surgery with ad lib access to food and water on an 11:13 hour light:dark cycle (lights on 7:00 a.m.). Approximately 5 μl of vehicle or PrRP31 dissolved in vehicle ([…]) was infused intracerebroventricularly through a pre-implanted cannula (Berridge et al., supra (1996)). Artificial extracellular fluid (147 mM NaCl, 1.3 mM CaCl2, 0.9 mM MgCl2, 2.5 mM KCl, 5.0 mM NaH2PO4; pH 7.4) plus 200 μg/ml cytochrome c served as vehicle. Infusions were made over a 2-min period using a microprocessor-controlled infusion pump (Harvard Apparatus, South Natick, Mass.). Cortical EEG (ECoG) from the frontal cortex and EMG from the dorsal neck muscles were recorded for 60 min prior to infusion and 90 min following infusion. To be scored as a distinct epoch, the appropriate ECoG and EMG activity patterns needed to persist for a minimum of 15 sec. Time spent in each state was scored and totaled for the five 30 min epochs of the observation period, two during the preinfusion period and three during the post-infusion period. The location of the infusion needle was verified morphologically after each experiment. Data were only used for analysis when EEG recordings were electrically adequate and infusion needle placement was accurate. Statistical analysis was performed using a two-way mixed-design ANOVA with drug treatment as the between-subjects variable and time as the within-subjects variable. Post-hoc analyses were conducted using Tukey's HSD test.\nFIGS. 7B and 7C show the effects of varying concentrations of PrRP infused into the lateral ventricle on total time spent awake (FIG. 7B) and slow-wave slept (FIG. 7C). Symbols represent mean±SEM of the time (sec) spent in the two different behavioral state categories of six animals per 30-min epoch. PRE1 and PRE2 represent pre-infusion epochs. POST1-POST3 represent post-infusion epochs. Vehicle-treated rats spent a substantial proportion of the testing period asleep."}, "PrRP receptor": {"target": "T2, PrRP receptor (Homo sapiens, UniProt P49683)", "T2 construct": "expressed in transfected cells", "T2 sequence (P49683 1-370)": "T1 sequence (P49683 1-370)", "conditions": "mammalian cells recombinantly expressing PrRP receptor; cited from earlier work"}, "[7]": {"tested_on": "rat anterior pituitary cells", "conditions": "rat anterior pituitary cells in vitro; cited from earlier work"}}, "data": [{"substance": "IRPVGRF [PrRP(25-31)]", "values": [{"measurement": "Kd", "setting": "GPR10 [1]", "value": 200, "unit": "nM"}, {"measurement": "calcium mobilization", "setting": "GPR10 [2]", "value": "mobilizes calcium"}]}, {"substance": "Prolactin Releasing Peptide [PrRP]", "values": [{"measurement": "maximum suppression of number of oscillations", "setting": "[3]; 10 μM, with DL-APV, bicuculline", "value": "approximately 40%"}, {"measurement": "inhibition of number of oscillations", "setting": "[3]; 20 μM, compared with 10 μM", "value": "comparable degree of inhibition"}, {"measurement": "effect on NMDA receptor-driven oscillation", "setting": "[4]", "value": "no discernible effect"}, {"measurement": "SWD duration, recovery", "setting": "[5]; 10 nmol ICV, after 40 minutes", "value": "returned to baseline"}, {"measurement": "SWD duration", "setting": "[5]; 10 nmol ICV, first 20 minutes", "value": "reduced by half"}, {"measurement": "reduction of seizure activity", "setting": "[5]; 50 nmol ICV", "value": 75, "unit": "%"}, {"measurement": "reduction of seizure activity", "setting": "[5]; 100 nmol ICV, at 20 minutes", "value": "~100", "unit": "%"}, {"measurement": "other mobility or behavioral changes", "setting": "[5]; all peptide concentrations (10-100 nmol ICV)", "value": "No other mobility or behavioral changes were observed"}, {"measurement": "total time spent awake", "setting": "[6]; 1 nmol i.c.v., post-infusion epochs", "value": "only a trend"}, {"measurement": "conversion to the awake state", "setting": "[6]; 10 nmol i.c.v.", "value": "nearly complete"}, {"measurement": "duration of awake state", "setting": "[6]; 10 nmol i.c.v.", "value": "lasted for well over an hour"}, {"measurement": "slow-wave sleep", "setting": "[6]; 10 nmol i.c.v.", "value": "near-complete suppression"}, {"measurement": "total time spent awake", "setting": "[6]; 10 nmol i.c.v., post-infusion epochs (POST1, POST2)", "value": "significantly increased"}, {"measurement": "onset of normal waking EEG/EMG patterns", "setting": "[6]; injected during sleep phase", "value": "within minutes"}, {"measurement": "calcium mobilization", "setting": "GPR10 [2]", "value": "leads to calcium mobilization"}, {"measurement": "arachidonic acid metabolite release", "setting": "PrRP receptor", "value": "leads to activation of arachidonic acid metabolite release"}]}, {"substance": "SRAHQHSMEIRTPDINPAWYAGRGIRPVGRF [PrRP-31]", "values": [{"measurement": "Kd", "setting": "GPR10 [1]", "value": "~1", "unit": "nM"}, {"measurement": "prolactin-releasing activity", "setting": "[7]", "value": "having prolactin-releasing activity"}]}, {"substance": "TPDINPAWYAGRGIRPVGRF [PrRP-20]", "values": [{"measurement": "Kd", "setting": "GPR10 [1]", "value": "~1", "unit": "nM"}, {"measurement": "prolactin-releasing activity", "setting": "[7]", "value": "having prolactin-releasing activity"}]}]}
